Paper PMC9069370, “Integrated Design of a Membrane‐Lytic Peptide‐Based Intravenous Nanotherapeutic Suppresses Triple‐Negative Breast Cancer” (Advanced Science, 2022)
Peptide text beside a SMILES is read from it.

Key:
HMLER = experiment: cells; assay type: cell-based, human; details: 72 h
Excerpt: (§1) […], and MCF-10A cells were maintained in MEGM with supplements and growth factors bovine pituitary extract, hydrocortisone, human epidermal growth factor, insulin, and gentamicin/amphotericin-B.

HMLER‐shEcad = experiment: cells; assay type: cell-based, human; details: 72 h
Excerpt: as §1

MCF‐10A = experiment: cells; assay type: cell-based, human; details: for IC50: 72 h
Excerpt: as §1

U2OS = assay type: cell-based, human; details: 72 h
HEK293T = experiment: cells; assay type: cell-based, human; details: 72 h
[1] = Tryptophan fluorescent binding assay; details: tryptophan fluorescence; 50 µM peptide, lipid titrated 0-5000 µM; phosphate buffered saline 1X, pH 7.4; values as lipid per peptide
Experimental: 50 µM ACP peptides and varied concentrations (concentrations: 0, 25, 50, 100, 150, 200, 250, 500, 1250, and 2500 µM) of POPC or POPC:POPG (3:1 ratio) large unilamellar vesicles were prepared in 10 mM phosphate buffer (pH 7.0). The solutions were measured after 1 h of incubation. Excitation was fixed at 280 nm (slit 9 nm) and emission was collected from 300 to 450 nm (slit 9 nm). The spectra were recorded using Cytation 5 Cell Imaging Multi‐Mode Reader from BioTek and were averaged by three scans.
Lipid Concentration-induced
Name Sequence† 50% Peptide Binding (L/P)
Extended Data Table 3 | Tryptophan binding assay. […]
peptide binding onto liposome. 50 µM peptides were fixed and incubated with titrated lipid (POPC vesicle […]
phosphate buffered saline (1X, pH 7.4). The lipid concentration that causes 50 % peptide binding was determined using tryptophan fluorescent binding assay and the values are shown as lipid per peptide.

[2] = ANTS/DPX liposome leakage assay; details: for Peptide Concentration-induced 50 % ANTS/DPX leakage at pH 4.8 (L/P), 3POPC/1POPG Vesicle / Peptide Concentration-induced 50 % ANTS/DPX leakage at pH 4.8 (L/P), POPC Vesicle / Peptide Concentration-induced 50 % ANTS/DPX leakage at pH 7.4 (L/P), 3POPC/1POPG Vesicle / Peptide Concentration-induced 50 % ANTS/DPX leakage at pH 7.4 (L/P), POPC Vesicle: 0.5 mM vesicles, peptide 0-20 µM, 3 h incubation, lipid per peptide; for Peptide Concentration-induced 50 % ANTS/DPX leakage at pH 4.8 (L/P), 3POPC/1POPG Vesicle / Peptide Concentration-induced 50 % ANTS/DPX leakage at pH 4.8 (L/P), POPC Vesicle: HCl-adjusted PBS 1X pH 4.8; for Peptide Concentration-induced 50 % ANTS/DPX leakage at pH 7.4 (L/P), 3POPC/1POPG Vesicle / Peptide Concentration-induced 50 % ANTS/DPX leakage at pH 7.4 (L/P), POPC Vesicle: PBS 1X pH 7.4, high ratio = more potent
Experimental: Vesicle preparation: 5 mM ANTS and 12.5 mM DPX were entrapped in 0.1 µm diameter extruded vesicles (either POPC or POPC/POPG at a ratio of 3:1) with lipids. Gel filtration chromatography of Sephadex G‐100 was used to remove external free ANTS/DPX from LUVs with entrapped contents. LUVs were diluted to 0.5 mM and used to measure the leakage activity by the addition of aliquots of ACPs. Leakage was measured after 3 h incubation. 10% Triton was used as the positive control to measure the maximum leakage of the vesicle. Fluorescence emission spectra were recorded using excitation and emission wavelength of 350 and 510 nm for ANTS/DPX using a BioTek Synergy H1 Hybrid Multi‐Mode Reader.
Peptide Concentration-induced Peptide Concentration-induced
Name Sequence† 50 % ANTS/DPX leakage 50 % ANTS/DPX leakage at pH 7.4 (L/P) at pH 4.8 (L/P)
POPC Vesicle 3POPC/1POPG Vesicle POPC Vesicle 3POPC/1POPG Vesicle […]
Extended Data Table 4 | Peptide concentration-induced 50 % ANTS/DPX liposome leakage. 0.5 mM POPC and 3POPC/1POPG vesicles were fixed and incubated with titrated peptide concentration (0, 0.02, […]
hydrochloric acid-adjusted phoshate buffered saline (1X, pH 4.8). The values are shown as lipid per

Row | Compound | IC50 (HMLER) [µM] | IC50 (HMLER‐shEcad) [µM] | IC50 (MCF‐10A) [µM] | IC50 (U2OS) [µM] | IC50 (HEK293T) [µM] | Lipid Concentration-induced 50% Peptide Binding (L/P), 3POPC/1POPG Vesicle [1] [L/P] | Lipid Concentration-induced 50% Peptide Binding (L/P), POPC Vesicle [1] [L/P] | Peptide Concentration-induced 50 % ANTS/DPX leakage at pH 4.8 (L/P), 3POPC/1POPG Vesicle [2] [L/P] | Peptide Concentration-induced 50 % ANTS/DPX leakage at pH 4.8 (L/P), POPC Vesicle [2] [L/P] | Peptide Concentration-induced 50 % ANTS/DPX leakage at pH 7.4 (L/P), 3POPC/1POPG Vesicle [2] [L/P] | Peptide Concentration-induced 50 % ANTS/DPX leakage at pH 7.4 (L/P), POPC Vesicle [2] [L/P] | selectivity for cancerous cells over non‐tumorigenic MCF‐10A (MCF‐10A; 2D culture, ratio of IC50) [fold] | change of ANTS/DPX dye leakage / liposome selectivity at pH 4.8 ([2]; pH = 4.8 compared with physiological pH, anionic versus neutral liposomes)
1 | CC(C)C[C@H](NC(=O)CN)C(=O)N[C@@H](CC(C)C)C(=O)N[C@@H](CC(=O)O)C(=O)N[C@@H](CC(C)C)C(=O)N[C@@H](CC(C)C)C(=O)N[C@@H](CCC(=O)O)C(=O)N[C@@H](CC(C)C)C(=O)N[C@@H](CC(C)C)C(=O)N[C@@H](CC(C)C)C(=O)N[C@@H](CCC(=O)O)C(=O)N[C@@H](C)C(=O)N[C@@H](C)C(=O)NCC(=O)N[C@@H](Cc1c[nH]c2ccccc12)C(N)=O [DEE] (H-GLLDLLELLLEAAGW-NH2) | 5.55 ± 0.35 | 6.05 ± 2.76 | 8.4 ± 1.56 | 61 ± 1.41 | 9.91 ± 0.44 | 0.38 | 0.63 | 164 | 110 | 597 | 644 |  | 
2 | CC(C)C[C@H](NC(=O)CN)C(=O)N[C@@H](CC(C)C)C(=O)N[C@@H](CC(=O)O)C(=O)N[C@@H](CC(C)C)C(=O)N[C@@H](CC(C)C)C(=O)N[C@@H](CCC(=O)O)C(=O)N[C@@H](CC(C)C)C(=O)N[C@@H](CC(C)C)C(=O)N[C@@H](CC(C)C)C(=O)N[C@@H](Cc1c[nH]cn1)C(=O)N[C@@H](C)C(=O)N[C@@H](C)C(=O)NCC(=O)N[C@@H](Cc1c[nH]c2ccccc12)C(N)=O [DEH] (H-GLLDLLELLLHAAGW-NH2) | 5.35 ± 1.91 | 3.6 ± 0.42 | 20.2 ± 6.72 | 36.5 ± 3.92 | 10.5 ± 4.67 | 1.50 | 0.75 | 193 | 63 | 548 | 620 |  | 
3 | CC(C)C[C@H](NC(=O)CN)C(=O)N[C@@H](CC(C)C)C(=O)N[C@@H](CCC(=O)O)C(=O)N[C@@H](CC(C)C)C(=O)N[C@@H](CC(C)C)C(=O)N[C@@H](CCC(=O)O)C(=O)N[C@@H](CC(C)C)C(=O)N[C@@H](CC(C)C)C(=O)N[C@@H](CC(C)C)C(=O)N[C@@H](CCC(=O)O)C(=O)N[C@@H](C)C(=O)N[C@@H](C)C(=O)NCC(=O)N[C@@H](Cc1c[nH]c2ccccc12)C(N)=O [EEE] (H-GLLELLELLLEAAGW-NH2) |  | 10.6 ± 3.46 |  | 78.8 ± 5.3 | 50 | 4.50 | 1.33 | 28 | 35 | 346 | 143 | > 25 | no increase in selectivity at low pH
